Source: the NIST ThermoML archive (doi:10.1016/j.fluid.2008.06.003)
Numbers after ± are expanded uncertainties.

Assays:
[1] = 298.15 K, 101.33 kPa, Liquid
[2] = refractive index (Na D-line) (dimensionless); settings: 298.15 K; 101.33 kPa; Liquid; Standard Abbe refractometry

Structure (SMILES) | refractive index [2] | mass density [1] [kg/m3] | mass density ([1]; Vibrating tube method) [kg/m3]
CCCCCCCC[n+]1ccn(C)c1.F[P-](F)(F)(F)(F)F [1-octyl-3-methylimidazolium hexafluorophosphate] | 1.42302 ± 0.001 |  | 1235.7 ± 8.3
CCO [ethanol] | 1.35929 ± 0.00031 | 785.1 ± 0.5 | 
CCCCCCn1cc[n+](C)c1.F[P-](F)(F)(F)(F)F [1-hexyl-3-methylimidazolium hexafluorophosphate] | 1.41787 ± 0.001 |  | 1293.7 ± 9.1

The next lines start with results.

refractive index [2] | mass density [1] [kg/m3] | Structure (SMILES) | mass density ([1]; Vibrating tube method) [kg/m3]
1.38517 ± 0.00037 | 679.5 ± 1 | CCCCCCC [heptane] | 
1.37217 ± 0.00037 | 654.9 ± 1.1 | CCCCCC [hexane] | 
